Tests used:
[1] = target: T1, human cloned receptor (motilin receptor) (Homo sapiens, UniProt O43193); assay: 125I-motilin binding to human cloned receptor (HEK 293 cells overexpressed with the motilin receptor); conditions: HEK 293 membranes
T1 construct: expressed in transfected cells; host or cells: HEK 293 cells
Protocol: Human antrum tissue from Analytical Biological Services (Wilmington, Del.) was prepared as a motilin receptor preparation in the following manner. The muscle tissue was homogenized in 10 volumes of 50 mM Tris-Cl, 10 mM MgCl2, 0.1 mg/ml bacitracin, and 0.25 mM Peflabloc, pH 7.5) in a Polytron (29000 rpm, 4×15 seconds). The homogenate was centrifuged at 1000×g for 15 minutes and the supernatant discarded. The pellet was washed twice before being suspended in homogenizing buffer. The crude homogenate was resuspended through a 23 gauge needle before aliquoting and storing at −80° C. The human cloned receptor was prepared from HEK 293 cells overexpressed with the motilin receptor. Cell pellets were thawed and resuspended in 2–3 volumes of homogenizing buffer (10 mM Tris-Cl, 0.2 mM MgCl2, 5 mM KCl, 5 μg/ml aprotinin, leupeptin, and pepstatin A, and 50 μg/ml bacitracin, pH 7.5) and allowed to sit on ice for 15–20 minutes. The suspension was homogenized on ice in a Dounce type homogenizer using 15 strokes. […] The pellet is washed twice with 1 ml cold saline, and after removal of the final supernatant, the pellet at the bottom of the tube is counted in a gamma counter. Non-specific binding is measured by the inclusion of 1 μM unlabelled motilin. IC50 values were determined from Kaleidograph curves. […]

[2] = target: T2, motilin receptor preparation (Human antrum tissue) (Homo sapiens, UniProt O43193); assay: 125I-motilin binding to human antral stomach membranes; design: % Inh (Human antrum): dose or concentration left out as unconfirmed; conditions: for inhibition at 1 µM: read-out: Human Antrum % Inh @1 μM
T2 construct: Human antrum tissue from Analytical Biological Services (Wilmington, Del.) was prepared as a motilin receptor preparation; tissue Analytical Biological Services (Wilmington, Del.); host or cells: human antrum (stomach) muscle tissue, crude membrane homogenate
T2 sequence (O43193 whole entry): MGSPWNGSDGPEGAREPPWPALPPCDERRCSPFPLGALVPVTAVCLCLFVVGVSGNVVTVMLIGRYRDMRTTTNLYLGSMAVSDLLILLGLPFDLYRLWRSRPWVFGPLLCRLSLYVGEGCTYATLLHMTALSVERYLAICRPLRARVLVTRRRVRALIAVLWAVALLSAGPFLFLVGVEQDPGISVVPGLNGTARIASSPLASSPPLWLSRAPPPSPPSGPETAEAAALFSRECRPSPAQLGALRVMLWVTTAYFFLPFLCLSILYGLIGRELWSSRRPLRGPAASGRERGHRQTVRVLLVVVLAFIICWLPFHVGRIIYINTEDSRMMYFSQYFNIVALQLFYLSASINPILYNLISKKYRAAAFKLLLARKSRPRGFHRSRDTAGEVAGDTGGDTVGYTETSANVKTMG
Protocol: Human antrum tissue from Analytical Biological Services (Wilmington, Del.) was prepared as a motilin receptor preparation in the following manner. The muscle tissue was homogenized in 10 volumes of 50 mM Tris-Cl, 10 mM MgCl2, 0.1 mg/ml bacitracin, and 0.25 mM Peflabloc, pH 7.5) in a Polytron (29000 rpm, 4×15 seconds). The homogenate was centrifuged at 1000×g for 15 minutes and the supernatant discarded. The pellet was washed twice before being suspended in homogenizing buffer. The crude homogenate was resuspended through a 23 gauge needle before aliquoting and storing at −80° C. The human cloned receptor was prepared from HEK 293 cells overexpressed with the motilin receptor. Cell pellets were thawed and resuspended in 2–3 volumes of homogenizing buffer (10 mM Tris-Cl, 0.2 mM MgCl2, 5 mM KCl, 5 μg/ml aprotinin, leupeptin, and pepstatin A, and 50 μg/ml bacitracin, pH 7.5) and allowed to sit on ice for 15–20 minutes. The suspension was homogenized on ice in a Dounce type homogenizer using 15 strokes. Sucrose and EDTA were added to a final concentration of 0.25M and 1 mM, respectively, and mixed with a few additional strokes. The material was centrifuged at 400×g for 5 minutes, and the supernatant saved. The pellet was re-resuspended twice with 5 ml homogenizing buffer and rehomogenized as before, and the supernatants combined. The supernatant was centrifuged at 100000×g for 1 hour. The pellet is retained and resuspended with 5 ml of homogenizing buffer through a 19 g and 25 g needle. The suspension is aliquoted and stored at −80° C. until used. The binding assay contains the following components (50 mM HEPES, 5 mM MgCl2, and 1 mM EGTA, pH 7.0, 15 mg/ml BSA, 10 μg/ml aprotinin, leupeptin, and pepstatin A, 0.25 mg/ml bacitracin, and 10 mM benzamidine), ^125I-radiolabelled porcine motilin (50000–70000 cpm; specific activity 2000 Ci/mmol), test compound, and membrane protein. After 60 minutes at 30° C., the samples are placed on ice and centrifuged for 1 minute at 13000×g. The pellet is washed twice with 1 ml cold saline, and after removal of the final supernatant, the pellet at the bottom of the tube is counted in a gamma counter. Non-specific binding is measured by the inclusion of 1 μM unlabelled motilin. IC50 values were determined from Kaleidograph curves.
125I-Motilin Binding to Human Antral Stomach Membranes and the Human Cloned Receptor: […]

[3] = system: motilin induced contraction; assay: Rabbit tissue bath procedure: inhibition of motilin induced contraction of duodenum segments; design: species or system New Zealand White rabbit; conditions: 3 nM porcine motilin induced contraction, read-out: Tissues IC50
Protocol: Rabbit Tissue Bath Procedure
One New Zealand White rabbit (Covance) of either sex was euthanized with an IV injection of Sleepaway. The duodenum was quickly excised, the lumen rinsed with saline to clean, and the tissue placed in cold, aerated (95% O2–5% CO2) Tyrodes buffer (NaCl 136.9 mM, KCl 2.7 mM, CaCl2 1.8 mM, MgCl2 1.04 mM, NaH2PO4 0.42 mM, NaHCO3 11.9 mM, Glucose 5.55 mM, pH 7.4). The duodenum, being kept moist at all times, was cleaned of any excess mesenteric tissue, and then cut into 3 cm segments starting at the proximal end. Sixteen tissue segments were usually prepared from each duodenum. These segments were tied on both ends with 3-0 silk suture (Ethicon). One end of the tissue was attached to an S-hook on a custom made glass support rod (Crown Glass Co., Somerville) and the rod plus tissue were placed in a 15 ml isolated tissue bath (Radnoti). The other end of the glass rod was attached to a Grass Force Displacement Transducer FT03. The tissue was maintained in room temperature Tyrodes buffer pH 7.4 and continually gassed with 95% O2— 5% CO2. The tissues were adjusted to 1.0 g resting tension and maintained at that tension throughout the equilibration period. An Ml2 Tissue Bath Computer was used to record and analyze data.
The tissues were washed twice during a 30 minute equilibration period and readjusted to 1 g resting tension as necessary. After equilibration the tissues were challenged with 3 μM Carbachol (Carbamoylcholine Chloride-Sigma). After maximal contraction was attained, the tissues were washed 3 times with Tyrodes. The tissues were allowed a 20 minute resting/equilibration period, during which time they were washed once and readjusted to 1 g resting tension. The tissues were challenged a second time with 3 μM Carbachol, and this contraction was considered as maximal, or 100% contraction. The tissues were washed 3 times, equilibrated for 10 minutes, washed again and readjusted to 1 g resting tension. Vehicle or test compound in 30% DMSO-50 mM HEPES was added directly to the bath and the tissues were incubated for 20 minutes. Test compounds and vehicle were run in duplicate.
The percent inhibition by test compound of the motilin induced contraction was calculated by first determining the ratio of the vehicle contractions with Motilin compared to the Carbachol contractions. This Tissue Adjustment Factor (TAF) was used to determine the value for the potential uninhibited contraction with Motilin for each tissue. The percent inhibition was then determined by dividing the actual Motilin contraction in treated tissues by the potential uninhibited contraction and subtracting this number from 1. IC50 values were determined by graphing results with Kaleidograph graphing program.

Motilin Receptor = target: T3, Motilin Receptor (Oryctolagus cuniculus, UniProt G1T803); assay: Motilin receptor binding, rabbit colon membranes, 125I porcine motilin; design: Rabbit Colon % Inh / inhibition / % Inh (Rabbit colon): dose or concentration left out as unconfirmed; conditions: rabbit colon membranes; 125I porcine motilin binding
T3 construct: The muscle tissue was homogenized in 10 volumes of 50 mM Tris-Cl; from tissue; host or cells: rabbit colon smooth muscle, crude membrane homogenate
T3 sequence (G1T803 1-400): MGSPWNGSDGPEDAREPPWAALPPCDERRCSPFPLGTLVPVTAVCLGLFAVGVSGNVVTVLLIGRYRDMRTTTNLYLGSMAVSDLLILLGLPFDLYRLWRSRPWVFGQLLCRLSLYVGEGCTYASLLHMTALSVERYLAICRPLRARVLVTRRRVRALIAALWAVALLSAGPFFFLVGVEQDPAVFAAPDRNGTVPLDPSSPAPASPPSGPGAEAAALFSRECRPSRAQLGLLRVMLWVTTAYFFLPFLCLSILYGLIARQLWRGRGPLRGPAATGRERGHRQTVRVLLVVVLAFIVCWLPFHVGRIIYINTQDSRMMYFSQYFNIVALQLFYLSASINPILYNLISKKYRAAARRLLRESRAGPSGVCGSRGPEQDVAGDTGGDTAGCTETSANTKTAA

T1 sequence (O43193 whole entry): as the sequence (O43193 whole entry) above

SMILES | IC50 [3] [µM] | inhibition at 1 µM ([2]; human antrum membranes, @1 μM) [%] | IC50 ([2]; human antrum membranes) [µM] | further results
CC[C@H](C)[C@H](NC(=O)[C@@H]1CCCN1C(=O)[C@@H](NC(=O)[C@@H](N)Cc1ccccc1)C(C)C)C(=O)N[C@@H](Cc1ccccc1)C(=O)N[C@H](C(=O)N[C@@H](Cc1ccc(O)cc1)C(=O)NCC(=O)N[C@@H](CCC(=O)O)C(=O)N[C@@H](CC(C)C)C(=O)N[C@@H](CCC(N)=O)C(=O)N[C@@H](CCCNC(=N)N)C(=O)N[C@@H](CCSC)C(=O)N[C@@H](CCC(N)=O)C(=O)N[C@@H](CCC(=O)O)C(=O)N[C@@H](CCCCN)C(=O)N[C@@H](CCC(=O)O)C(=O)N[C@@H](CCCNC(=N)N)C(=O)N[C@@H](CC(N)=O)C(=O)N[C@@H](CCCCN)C(=O)NCC(=O)N[C@@H](CCC(N)=O)C(=O)O)[C@@H](C)O [Motilin] | – | – | – | IC50 [1]: 0.00355 ± 5e-05 µM; IC50 ([2]; 125I-Motilin binding to human antral stomach membranes): 0.001 ± 0.0001 µM
O=C(c1ccc(F)cc1)N(C[C@H]1CC[C@@H](N(Cc2ccccc2)C(=O)C(Cl)(Cl)Cl)C1)c1cccc(OCCN2CCCC2)c1 [compound 218] | 0.035 | 98 | – | –
O=C(c1ccc(F)cc1)N(CC1CCCC(N(Cc2ccccc2)Cc2ccccc2)C1)c1cccc(OCCN2CCCC2)c1 (stereo not drawn) [compound 222] | – | – | – | % Inh (Rabbit colon) (Motilin Receptor): 83%; % Inh (Human antrum) ([2]; human antrum membranes, 125I porcine motilin binding): 83%
CC(C)(C)C(=O)N(Cc1cccc(Cl)c1)C1CCCC(CN(C(=O)c2ccc(F)cc2)c2cccc(OCCN3CCCC3)c2)C1 (stereo not drawn) [compound 226] | 0.009 | 100 | 0.032 | –
CC(C)(C)C(=O)N(Cc1ccc(F)c(F)c1)C1CCCC(CN(C(=O)c2ccc(F)cc2)c2cccc(OCCN3CCCC3)c2)C1 (stereo not drawn) [compound 228] | – | 100 | 0.025 | –
O=C(c1ccc(F)cc1)N(C[C@H]1CC[C@@H](N(Cc2ccccc2)C(=O)C(Cl)(Cl)Cl)C1)c1cccc(OCCN2CCCC2)c1 [compound 231] | – | – | – | Human Antrum % Inh @1 μM ([2]; human antrum membranes, @1 μM): 88%
